Assay results: patent US20220017478A1, “2-BENZOYLAMINOBENZAMIDE DERIVATIVES AS BCL-3 INHIBITORS” (University College Cardiff Consultants Limited, priority 2013, published 2022)
Like-named read-outs stand apart in the source and are kept apart here.

Experiments:
Bcl-3-p50 binding = biological target: T1, Bcl-3-p50 binding (Homo sapiens, UniProt P20749); test: Indirect sandwich ELISA of Bcl-3 binding to p50 in lysates of treated HEK-293 cells overexpressing FLAG-tagged Bcl-3; type: cell-based
T1 construct: expressed in transfected cells; host or cells: HEK-293
T1 sequence (P20749 1-454): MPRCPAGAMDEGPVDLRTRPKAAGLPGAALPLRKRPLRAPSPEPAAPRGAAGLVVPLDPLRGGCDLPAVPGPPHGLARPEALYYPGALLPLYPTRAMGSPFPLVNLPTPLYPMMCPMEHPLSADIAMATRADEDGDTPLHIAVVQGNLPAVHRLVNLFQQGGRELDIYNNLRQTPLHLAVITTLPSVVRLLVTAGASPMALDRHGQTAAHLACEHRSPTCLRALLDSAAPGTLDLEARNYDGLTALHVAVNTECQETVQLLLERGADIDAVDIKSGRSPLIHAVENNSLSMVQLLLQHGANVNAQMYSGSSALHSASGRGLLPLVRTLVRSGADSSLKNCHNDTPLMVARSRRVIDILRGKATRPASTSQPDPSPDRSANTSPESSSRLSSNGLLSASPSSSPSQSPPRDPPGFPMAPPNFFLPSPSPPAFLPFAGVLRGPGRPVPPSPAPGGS
Procedure: Proteins were extracted from cells in order to be analyzed by ELISA assay. The media from tissue culture flask was removed and cells were rinsed with ice cold PBS (Sigma, Dorset, UK). Appropriate volume of PBS (5 ml for T25, 10 ml for T80) was added into the flask and cells were removed with a cell scraper (Nunc, Leics, UK). The cell suspension was then transferred to 15 ml tubes and centrifuged at 11000 rpm for 5 min at room temperature. Resulting pellet was used for protein extraction immediately or stored at −20° C. prior use.
Non-denatured protein extract was prepared using non-denaturing lysis buffer (Table 1) and used to analyze protein-protein interaction.
Complete mini protease inhibitor tablets (Roche, Welwyn Garden City, UK), 10 mM sodium fluoride (Fluka Biochemika), 1 mM sodium pyrophospate and 1 mM sodium orthovanadate (Sigma, Dorset, UK) were added to the buffer prior use. Cell pellets were resuspended in appropriate volume of non-denaturing buffer (50-200 μl) and cultivated on ice 5 min. Cell suspensions were transferred to microcentrifuge tubes and sonicated on ice (3 times 5 s) and centrifuged at 10000 rpm for 10 min at 4° C. The resultant supernatant was used immediately or stored at −20° C. until required.
In our case, ELISA assay was used to detect either the amount of Flag-Bcl-3 protein alone or Flag-Bcl-3 in complex with p50, using indirect or sandwich ELISA respectively.
For Indirect and sandwich ELISA assay, Non-denaturing cell lysate (above) was diluted with TBS/T [tris buffer saline (TBS, Calbiochem, Merck) supplemented with 0.5% v/v Tween (Sigma, Dorset, UK)] to a concentration of 0.5-1 μg/μl and 100 μl was added onto ANTI-Flag coated flat bottom ELISA plates (Sigma, Dorset, UK). Samples were added in triplicates, while TBS/T was used as a negative control. The plate was cultivated at 37° C. for an hour followed by 3×200 μl washes with TBS/T. Primary antibodies, either Bcl-3 (Santa Cruz Biotech) for indirect ELISA and p50 for sandwich ELISA (Abcam) were added in known volumes (125 μl) and concentrations to each well, cultivated covered from light for an hour at room temperature. Another three 200 μl washes with TBS/T were performed before cultivation with alkaline phospatase (AP) conjugated secondary antibody. Meanwhile, para-nitrophenylphosphate solution (pNPP, Santa Cruz Biotechnology, California, USA) was prepared according to manufacturer's instructions (5 mg of pNPP disodium salt in 5 ml of pNPP substrate buffer). The solution was mixed well and covered from light prior to use. pNPP is a substrate of choice for use with alkaline phosphatase and produces a soluble end product that is yellow in colour. Therefore colour changes can be measured and represent the amount of AP present. After cultivation with secondary antibody, the wells were washed 3×200 μl. TBS/T, pNPP solution was added (50 μl/well) and cultivated for an hour covered from light at room temperature. The reaction was stopped by addition of 3N NaOH (20 μl/well) and the colorimetric changes were measured at 405 nm using a plate reader.
HEK-293 cells overexpressing Bcl-3 were cultivated with Compound 1a over a range of molarities for 24 hrs before cell lysates were obtained under non-denaturing conditions. […] Indirect ELISA assay was performed using Bcl-3 antibody to show an equal loading across samples treated with compound 1a (FIG. 2B) and controls (FIG. 2C).
HEK-293 Bcl-3 WT cells were cultivated with selected compounds over a range of molarities for 24 hrs before cell lysates were obtained under non-denaturing conditions. The dose response curve for selected analogues was generated using GraphPad software (FIG. 8A-D).

SKBR3 cells = test: Cell Titre Blue viability assay, SKBR3; type: cell-based, human; settings: Homo sapiens, SK-BR-3; SKBR3, 24 hrs, extrapolated with GraphPad; read-out: IC50 cell viability, extrapolated from the dose-response curve
Procedure: (§1) The viability of cells at experimental endpoints for particular assays was determined using the Cell Titre Blue reagent (Promega, Southampton, UK). This reagent measures the cellular metabolic activity using resazurin as an indicator dye. Viable cells, therefore metabolically active, will reduce resazurin into highly fluorescent resofurin. The resulting fluorescence levels are measured and indicate cell viability.
(§2) Cells were plated at low confluency into 96 well plates in 100 μl of complete growth media in triplicates and were incubated at 37° C. in 5% CO2 for the desired test exposure period. For each 100 μl of media in 96 well plates, 20 μl Cell Titre Blue reagent was added followed by incubation for an hour at 37° C. in 5% CO2. Fluorescence was then measured by setting excitation/emission wavelengths to 560/590 nm on a Flurostar Optima plate reader (BMG tabtech, Bucks, UK).
(§3) To compare the toxicity in tumorigenic as well as in non-tumorigenic breast cancer cells, we selected MCF-10A as a non-tumorigenic human breast cancer cell line and MDA-MB-231 and SKBR3 as cell models of tumorigenic human breast cancer cell line.
(§4) Cell toxicity was evaluated using the Cell Titre Blue viability assay over a range of molarities for 24 hrs.

[1] = Cell Titre Blue viability assay, SKBR3; type: cell-based, human; settings: human, SKBR3 cells; SKBR3, 1 mM, 24 hrs; read-out: cell viability compared to DMSO control (100%)
Procedure: as §1, §2, §3, §4

MDA-MB-231 cells = test: Cell Titre Blue viability assay, MDA-MB-231; settings: Homo sapiens, MDA-MB-231, 24 h, read-out: IC50 cell viability, extrapolated from the dose-response curve
Procedure: as §1, §2, §4
Selected compounds were dissolved in DMSO and diluted to a highest concentration of 10 μM (0.1% DMSO). In all assays, a DMSO control was always used. Selected compounds were tested for cell toxicity in HEK-293 and MDA-MB-231 cells before being used in cell-based assays. Cell toxicity was evaluated using the Cell Titre Blue viability assay over a range of molarities for 24 hrs

[2] = HEK-293 overexpressing Bcl-3, 24 hrs, read-out: IC50 Indirect Sandwich ELISA (Bcl-3-p50 binding)
[3] = Table 3, read-out: ELISA assay (μM) IC50

SMILES: COc1ccc(C(=O)Nc2ccccc2C(=O)NCCN2CCOCC2)cc1 [Compound 1f, 2-[(4-methoxybenzoyl)amino]-N-(2-morpholin-4-ylethyl)benzamide]
- IC50 (Bcl-3-p50 binding; [2]): 0.0602 µM
- IC50 (Bcl-3-p50 binding; [3]): 0.0617 µM

SMILES: COc1cccc(C(=O)NCCN2CCOCC2)c1NC(=O)c1ccccc1F [Compound 3a, 2-[(2-fluorobenzoyl)amino]-3-methoxy-N-(2-morpholin-4-ylethyl) benzamide]
- IC50 (Bcl-3-p50 binding; [2]): 0.119 µM
- IC50 (Bcl-3-p50 binding; [3]): 0.0119 µM

SMILES: O=C(Nc1ccccc1C(=O)NCCCN1CCOCC1)c1ccccc1F [Compound 2a]
- IC50 (Bcl-3-p50 binding; HEK-293 Bcl-3 WT, 24 hrs, IC50 could not be established, calculated with GraphPad, read-out: IC50 Indirect Sandwich ELISA, calculated from the dose response curve): 15.2 µM

SMILES: O=C(Nc1ccccc1C(=O)NCCN1CCOCC1)c1ccccc1F [Compound 1a, 2-[(2-fluorobenzoyl)amino]-N-(2-morpholin-4-ylethyl)benzamide]
- IC50 (SKBR3 cells): 1370 µM
- viability at 24 h, 1 mM [1]: 57%
- IC50 (MDA-MB-231 cells): 2700 µM
- IC50 (Bcl-3-p50 binding; [2]): 0.386 µM
